Results from patent US10766869B2, “Triazoles for the treatment of demyelinating dieases” (Vertex Pharmaceuticals Incorporated, priority 2015, dated 2020).
Like-named read-outs stand apart in the source and are kept apart here.

What was measured:
[1] = test system: primary rat mixed cortical cells; assay: In vitro myelination assay (MBP positive myelin strands, fold myelin pixels above background); format: cell-based; details: Rattus norvegicus; for fold induction at 1 µM: 1.0 μM compound; for fold induction at 10 µM: 10.0 μM compound
How it was run: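 Fourteen-day treatment of primary P1 rat mixed cortical cultures, re-dosed at days 6 and 10, at 1.0 μM and 10.0 μM. MBP immunofluorescence was imaged at 10× and myelin strands quantified by software, normalised to untreated wells as fold above background.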

[2] = test system: C57BL/6 mice demyelinated with cuprizone; assay: In vivo mouse cuprizone assay (new myelin, MBP positive / MOG negative area); details: for effect measured as new myelin generated in response to compound treatment compared to control with no added compound: Regimen A (QD or BID for 14 days via oral gavage), various doses; for effect (new myelin generated compared to control): Regimen A, oral gavage
From the text: Assays for Detecting and Measuring Remyelination Properties of Compounds In Vivo Mouse Cuprizone Assay:
Cuprizone Feeding Protocol:
2 month old female C57BL/6 mice (Stock Number: 000664) were purchased from Jackson Labs and fed for 4-10 months with a 0.2% cuprizone chow (provided by Research Diets, Product # D10020701R, Description AIN-76A Rodent Diet with 0.2% cuprizone) using cuprizone purchased from Sigma (Cat #14690-100G). Chow was provided ad libitum, and refreshed every 4 days to ensure stability of the cuprizone. Mice were maintained on this diet for 4-10 months before initiation of the experiments.
1) 24 hours prior to the start of dosing, 6 to 10 mice were switched from cuprizone chow to normal chow (Picolab rodent diet 20 EXT IRR 5053, irradiated) without added cuprizone. These mice were maintained on normal chow throughout the course of dosing.
2) 6 to 10 mice per group were randomized into new cages such that mice that were housed in one cage during the cuprizone diet were not housed together in one dose group during the study.
3) Mice were dosed with compound in one of two regimens: Regimen A: mice were dosed QD or BID for 14 days via oral gavage. Regimen B: mice were dosed QD or BID for 14 days via IP injection. However, other dosing schedules and/or routes of administration may also be used.
4) On the last day of dosing, dried blood spots were collected at multiple time points following the last dose. Often this was 30 minutes, 2, 6 and 24 hours following the final dose on day 14 via the tail vein.
Perfusion and Sectioning:
1) The day after the last day of dosing, mice were transcardially perfused with 12 ml of PBS (Sigma, P4417) followed by 20 ml of 3.2% paraformaldehyde in PBS (Electron Microscopy Sciences #15714-S). The brains were removed via standard dissection techniques and each was postfixed in 3.2% paraformaldehyde (20 ml) for 24-48 hours at room temperature in sealed scintillation vials.
2) Serial 50 micron sections were collected through the anterior posterior extent of the brain, from just behind the olfactory bulb, through visual cortex using a vibrating microtome, the V-STAR (described in International Publication No. WO 2013/012799 and U.S. Pat. No. 8,967,024 both of which are incorporated herein by reference in their entirety). Sections were collected in phosphate buffered saline (PBS). Vibratome speed was set to 1.1 mm/s and amplitude was set to 0.8 mm.
3) A series of every 24th section was removed for staining yielding 5 sections per brain.
1) Tissue sections were stained using an automated system for processing blots (hereinafter the “blotinator”) (described in WO2011/087646 and U.S. Pat. Nos. 8,337,754 and 8,679,406 each of which is incorporated herein by reference in its entirety). Brain sections were placed in the blotinator plate and bathed in PBS. The blotinator applied primary antibodies (MOG and MBP together) and Hoechst nuclear stain for 12 hours at room temperature with constant shaking.
The following stains were diluted in blocking buffer (described below):
Hoechst nuclear stain (0.5 mg/ml)(bisBenzimide H 33342 trihydrochloride Sigma #33342).
Myelin basic Protein (MBP) antibody (Abcam Cat # ab7349) was diluted at a 1:750 ratio in blocking buffer).
Myelin Oligodendrocyte Glycoprotein (MOG) (R&D systems Cat # AF2439) was diluted at a 1:250 ratio in blocking buffer.
Antibodies were diluted in blocking buffer, which consisted of 0.3% Triton X-100 (Sigma Cat #234729), 0.02% Sodium Azide (Sigma Cat # S2002) and 8% fetal bovine serum in PBS (Sigma Cat # F2442).
2) The blotinator washed the samples 4 times for 5 minutes each with a wash buffer (0.2% Triton X-100 in PBS).
3) The blotinator applied secondary antibodies diluted in blocking buffer and incubated them for 2 hours with constant shaking.
Alexa 488 donkey anti-rat secondary (Life technologies Cat # A-21208) was diluted at 1:1000 in blocking buffer. […]

[3] = relative to baseline of no added compound, read-out: Fold myelin pixels above background, 1.0 μM
[4] = relative to baseline of no added compound, read-out: Fold myelin pixels above background, 10.0 μM
[5] = relative to baseline of no added compound, read-out: Fold myelin pixels above background
[6] = read-out: Fold myelin pixels above background relative to baseline of no added compound

Compound	fold induction at 1 µM [1, 3]	fold induction at 10 µM [1, 4]	effect measured as new myelin generated in response to compound treatment compared to control with no added compound [2]	fold induction at 1 µM [1, 5]	fold induction at 10 µM [1, 5]	other results
CCc1cc(Nc2ncn(-c3cc(F)cc(F)c3)n2)cc(N2CCN(C3COC3)CC2)c1 [Compound 107, 1-(3,5-difluorophenyl)-N-[3-ethyl-5-[4-(oxetan-3-yl)piperazin-1-yl]phenyl]-1,2,4-triazol-3-amine]	1000 to 10000	1000 to 10000	positive effect	–	–	effect (new myelin generated compared to control) ([2]; 30 mpk): positive effect; effect (new myelin generated compared to control) ([2]; 90 mpk): positive effect
Fc1cc(F)cc(-n2cnc(Nc3cc(C(F)F)cc(N4CCN(C5COC5)CC4)n3)n2)c1 [Compound 512, 4-(difluoromethyl)-N-[1-(3,5-difluorophenyl)-1,2,4-triazol-3-yl]-6-[4-(oxetan-3-yl)piperazin-1-yl]pyridin-2-amine]	–	–	positive effect	100 to 1000	100 to 1000	effect (new myelin generated compared to control) ([2]; 50 mpk): positive effect
Cc1cc(Nc2ncn(-c3cc(F)cc(F)c3)n2)cc(N2CCN(C3(C)COC3)CC2)c1 [Compound 215, 1-(3,5-difluorophenyl)-N-[3-methyl-5-[4-(3-methyloxetan-3-yl)piperazin-1-yl]phenyl]-1,2,4-triazol-3-amine]	10 to 100	10 to 100	positive effect	–	–	effect (new myelin generated compared to control) ([2]; 30 mpk): positive effect; effect (new myelin generated compared to control) ([2]; 90 mpk): positive effect
Cc1cc(Nc2ncn(-c3cnccn3)n2)cc(N2CCN(C3COC3)CC2)c1 [Compound 195, N-[3-methyl-5-[4-(oxetan-3-yl)piperazin-1-yl]phenyl]-1-pyrazin-2-yl-1,2,4-triazol-3-amine]	100 to 1000	100 to 1000	positive effect	–	–	effect (new myelin generated compared to control) ([2]; 60 mpk): positive effect; effect (new myelin generated compared to control) ([2]; 100 mpk): positive effect
Fc1ccc(-n2cnc(Nc3cc(C(F)F)cc(N4CCN(C5COC5)CC4)n3)n2)cc1F [Compound 524, 4-(difluoromethyl)-N-[1-(3,4-difluorophenyl)-1,2,4-triazol-3-yl]-6-[4-(oxetan-3-yl)piperazin-1-yl]pyridin-2-amine]	–	–	positive effect	100 to 1000	100 to 1000	effect (new myelin generated compared to control) ([2]; 10 mpk): positive effect; effect (new myelin generated compared to control) ([2]; 20 mpk): positive effect; effect (new myelin generated compared to control) ([2]; 30 mpk): positive effect
Cc1cc(Nc2ncn(-c3cc(F)cc(F)c3)n2)c(F)c(N2CCN(C3COC3)CC2)c1 [Compound 691, 1-(3,5-Difluorophenyl)-N-(2-fluoro-5-methyl-3-(4-(oxetan-3-yl)piperazin-1-yl)phenyl)-1H-1,2,4-triazol-3-amine]	–	–	positive effect	10 to 100	10 to 100	effect (new myelin generated compared to control) ([2]; 8 mpk): positive effect; effect (new myelin generated compared to control) ([2]; 10 mpk): positive effect; effect (new myelin generated compared to control) ([2]; 20 mpk): positive effect
Cc1cc(Nc2ncn(-c3cc(F)cc(F)c3)n2)cc(N2CCN(C3COC3)CC2)c1 [Compound 33, 1-(3,5-difluorophenyl)-N-[3-methyl-5-[4-(oxetan-3-yl)piperazin-1-yl]phenyl]-1,2,4-triazol-3-amine]	100 to 1000	≤ 1	positive effect	–	–	effect (new myelin generated compared to control) ([2]; 10 mpk): positive effect; effect (new myelin generated compared to control) ([2]; 25 mpk): positive effect; effect (new myelin generated compared to control) ([2]; 50 mpk): positive effect
Cc1cc(Nc2ncn(-c3cccc(C(F)F)c3)n2)cc(N2CCC(N3CCOCC3)CC2)c1 [Compound 725, 1-[3-(difluoromethyl)phenyl]-N-[3-methyl-5-(4-morpholino-1-piperidyl)phenyl]-1,2,4-triazol-3-amine]	–	–	–	10 to 100	10 to 100	–
[2H]C1([2H])N(C(=O)C2CC2)C([2H])([2H])C([2H])([2H])N(c2cc(Nc3ncn(-c4cc(F)cc(F)c4)n3)cc(C(F)F)c2)C1([2H])[2H] [Compound 1041, cyclopropyl-[2,2,3,3,5,5,6,6-octadeuterio-4-[3-(difluoromethyl)-5-[[1-(3,5-difluorophenyl)-1,2,4-triazol-3-yl]amino]phenyl]piperazin-1-yl]methanone]	–	–	–	–	–	fold induction at 1 µM [1, 6]: 1 to 10; fold induction at 10 µM [1, 6]: 1 to 10
CC(C)Oc1cc(Nc2ncn(-c3cc(F)cc(F)c3)n2)cc(N2CCN(C3COC3)CC2)c1 [Compound 653, 1-(3,5-difluorophenyl)-N-[3-isopropoxy-5-[4-(oxetan-3-yl)piperazin-1-yl]phenyl]-1,2,4-triazol-3-amine]	–	–	–	10 to 100	≤ 1	–
Cc1cc(Nc2ncn(-c3cnccn3)n2)cc(N2CCN(C3(C)COC3)CC2)c1 [Compound 136, N-[3-methyl-5-[4-(3-methyloxetan-3-yl)piperazin-1-yl]phenyl]-1-pyrazin-2-yl-1,2,4-triazol-3-amine]	1 to 10	10 to 100	–	–	–	–
N#Cc1cc(Nc2ncn(-c3cc(F)cc(F)c3)n2)cc(N2CCN(C3COC3)CC2)c1 [Compound 678, 3-[[1-(3,5-difluorophenyl)-1,2,4-triazol-3-yl]amino]-5-[4-(oxetan-3-yl)piperazin-1-yl]benzonitrile]	–	–	–	10 to 100	1 to 10	–
Cc1cc(Nc2ncn(-c3cc(F)cc(F)c3)n2)cc(N2CCN(C3CCCC3)C(=O)C2)c1 [Compound 905, 1-cyclopentyl-4-[3-[[1-(3,5-difluorophenyl)-1,2,4-triazol-3-yl]amino]-5-methyl-phenyl]piperazin-2-one]	–	–	–	–	–	fold induction at 1 µM [1, 6]: 1 to 10; fold induction at 10 µM [1, 6]: 10 to 100
Cc1cc(Nc2ncn(-c3ccccc3)n2)cc(N2CCN(C3CCOCC3)CC2)c1 [Compound 289, N-[3-methyl-5-(4-tetrahydropyran-4-ylpiperazin-1-yl)phenyl]-1-phenyl-1,2,4-triazol-3-amine]	1000 to 10000	1 to 10	–	–	–	–
Fc1cccc(-n2cnc(Nc3cc(Cl)cc(N4CC(N5CCOCC5)C4)c3)n2)c1 [Compound 827, N-[3-chloro-5-(3-morpholinoazetidin-1-yl)phenyl]-1-(3-fluorophenyl)-1,2,4-triazol-3-amine]	–	–	–	–	–	fold induction at 1 µM [1, 6]: 10 to 100; fold induction at 10 µM [1, 6]: 1 to 10
